According to patent US7589170B1, “Synthesis of cyclic peptides” (priority 1998, dated 2009):
Entries after “also recorded” stand apart in the source; their conditions may differ. Read-outs that look alike come from different tables or passages of the source.

Tests used:
[1] = stability to hydrolysis in aqueous buffer at pH 9; assay type: physicochemical
[2] = stability to heating in DMSO; assay type: physicochemical; conditions: 20 h at 70° C. in DMSO
[3] = the molecule shown is the open-chain precursor, amide bond, 15-membered ring
[4] = tested on: sympathetic varicosities of the mouse vas deferens; assay: focal extracellular recording of evoked excitatory junction currents (EJC, measure of transmitter release); assay type: cell-based
Method: Each filled circle represents an EJC recorded during 100 minutes. Failure to record an EJC is indicated by filled circles on zero of the y-axis. The lower horizontal line indicates when the mixture of cyclic tetrapeptides (1 μM) was applied to the tissue bathing solution and the upper horizontal line when naloxone (1 μM) was added to the tissue bathing solution. […] Cyclo [Tyr-Arg-Phe-Gly] is SEQ ID NO:42.
Each bar is the average of at least 60 recordings, and the vertical lines show the standard deviation of the mean. […] Cyclo [Tyr-Arg-Phe-Gly] is SEQ ID NO:42.
Demorphin is a opioid heptapeptide isolated from the skin of South American frogs, and has the following sequence; {H-Tyr-D-Ala-Phe-Gly-Tyr-Pro-Ser-NH2; SEQ ID NO:71). The tetrapeptide analogues (H-Tyr-D-Ala-Phe-Gly-NH-Y; SEQ ID NO:29) are potent analgesics when administered by intracerebroventricular injection. In Example 3 we synthesised the cyclic tetrapeptides cyclo[Tyr-Arg-Phe-Gly] (SEQ ID NO:42) and cyclo[Tyr-Arg-D-Phe-Gly] (SEQ ID NO:42) designated WP 152 using our combination strategies.

[5] = as originally found for the isolate from Stylotella aurantium; cited from earlier work
[6] = amide bond, 16-membered ring, HATU/DIEA, DMF, resin, with chain assembly
[7] = from H-(Hnb)Tyr-Arg-(Hnb)Phe-Ala-OH, amide bond, 12-membered ring
[8] = amide bond, DIEA, DMF, resin, with chain assembly
[9] = amide bond, 21-membered ring, BOP/2,6-lutidine, resin, -10.0 °C, with chain assembly

Molecule: N=C(N)NCCC[C@H]1C(=O)N[C@@H](Cc2ccccc2)C(=O)N(Cc2c(O)cccc2[N+](=O)[O-])CC(=O)N[C@@H](Cc2ccc(O)cc2)C(=O)N1Cc1c(O)cccc1[N+](=O)[O-] [H-(Hnb)Gly-Tyr-(Hnb)Arg-Phe-OH?]
- ring closure, yield after HPLC (from H-(Hnb)Gly-Tyr-(Hnb)Arg-Phe-OH?, amide bond, 12-membered ring, BOP/DIEA, DMF, 1.18 mM): 68%

Molecule: cyclo-[(Hnb)Tyr-Arg-(Hnb)Phe-(D)Ala] [Product A]
- stability to hydrolysis [1]: Stable to hydrolysis
- stability to heat [2]: Unstable to heat

Molecule: Cyclo-[DGCatRG]
- ring closure, yield after HPLC (amide bond, 16-membered ring, DIEA, DMF, resin, with chain assembly): 11%

Molecule: CN1CC(=O)NCC(=O)N(C)CC(=O)NCC1=O [H-Gly-MeGly-Gly-MeGly-OH]
- ring closure, yield after HPLC (from H-Gly-MeGly-Gly-MeGly-OH, amide bond, 12-membered ring, BOP/DIEA, DMF, 1.0 mM): 2%

Molecule: H-Ala-Phe-Leu-Pro-Ala-O-linker-resin?
- ring closure, conversion ([3]; resin): 0%

Molecule: CC(C)C[C@@H]1NC(=O)[C@H](Cc2ccccc2)NC(=O)[C@H](C)N(Cc2cc([N+](=O)[O-])ccc2O)C(=O)[C@H](C)NC(=O)[C@@H]2CCCN2C1=O [Cyclo-[N-(5-nitro-2-hydroxybenzyl)-Ala-Phe-Leu-Pro-Ala]]
- ring closure, yield after HPLC (from H-(5-nitro-2-hydroxybenzyl)Ala-Phe-Leu-Pro-Ala-OH, amide bond, 15-membered ring, BOP/DIEA, DMF, 1.0 mM, 25.0 °C): 51%

Molecule: CN1CC(=O)NCC(=O)NCC(=O)NCC1=O [H-Gly-Gly-MeGly-Gly-OH]
- ring closure, yield after HPLC (from H-Gly-Gly-MeGly-Gly-OH, amide bond, 12-membered ring, BOP/DIEA, DMF, 1.0 mM): 11%

Molecule: Cyclo-[Arg-Gly-Asp-Gly-β-Ala]
- ring closure, yield after HPLC [6]: 9%

Molecule: cyclo-[D-G-Amb-R-G]
- ring closure, yield after HPLC (amide bond, DIPEA, DMF, resin, with chain assembly): 49%

Molecule: C=CCN1CC[C@]23c4c5ccc(O)c4O[C@H]2C(=O)CC[C@@]3(O)[C@H]1C5 [naloxone, reference compound]
- effect of naloxone on the EJC reduction caused by the cyclic tetrapeptide mixture ([4]; naloxone 1 μM added to the tissue bathing solution with the tetrapeptide mixture (1 μM)): inhibits this effect; also recorded: reversed

Molecule: C[C@@H]1NC(=O)[C@H](Cc2ccccc2)N(Cc2c(O)cccc2[N+](=O)[O-])C(=O)[C@H](CCCNC(=N)N)NC(=O)[C@H](Cc2ccc(O)cc2)N(Cc2c(O)cccc2[N+](=O)[O-])C1=O [cyclo-[(Hnb)Tyr-Arg-(Hnb)Phe-Ala]]
- ring closure, yield after HPLC [7]: 13%

Molecule: CN1CC(=O)NCC(=O)N(C)CC(=O)N(C)CC1=O [H-Gly-MeGly-MeGly-MeGly-OH]
- ring closure, yield after HPLC (from H-Gly-MeGly-MeGly-MeGly-OH, amide bond, 12-membered ring, BOP/DIEA, DMF, 1.0 mM): 5%

Molecule: CN1CC(=O)NCC(=O)NCC(=O)NCC1=O [H-Gly-MeGly-Gly-Gly-OH]
- ring closure, yield after HPLC (from H-Gly-MeGly-Gly-Gly-OH, amide bond, 12-membered ring, BOP/DIEA, DMF, 1.0 mM): 1%

Molecule: H-Ala-Phe-Leu-Pro-Ala-OH?
- ring closure, conversion ([3]; BOP/DIEA): 0%

Molecule: cyclo-[DAmbGRG]
- ring closure, yield after HPLC [8]: 5%

Molecule: Cyclo-(SCH2CH2-Gly-Arg-Pro-Phe-Gly)
- ring closure, yield after HPLC (other bond, 18-membered ring, BOP/DIEA, DMF, 1.0 mM, -10.0 °C): 31%

Molecule: CC(C)C[C@@H]1NC(=O)[C@H](Cc2ccccc2)NC(=O)[C@H](C)N(Cc2c(O)cccc2[N+](=O)[O-])C(=O)[C@H](C)NC(=O)[C@@H]2CCCN2C1=O [Cyclo-[N-(6-nitro-2-hydroxybenzyl)-Ala-Phe-Leu-Pro-Ala]]
- ring closure, yield after HPLC (from H-(6-nitro-2-hydroxybenzyl)Ala-Phe-Leu-Pro-Ala-OH, amide bond, 15-membered ring, BOP/DIEA, DMF, 1.0 mM, 25.0 °C): 39%

Molecule: CN1CC(=O)NCC(=O)NCC(=O)NCC1=O [H-Gly-Gly-Gly-MeGly-OH]
- ring closure, yield after HPLC (from H-Gly-Gly-Gly-MeGly-OH, amide bond, 12-membered ring, BOP/DIEA, DMF, 1.0 mM): 8%

Molecule: cyclo[Tyr-Arg-Phe-Gly] (SEQ ID NO:42) and cyclo[Tyr-Arg-D-Phe-Gly] (SEQ ID NO:42) [WP 152]
- EJC amplitude and frequency ([4]; 1 μM in tissue bathing solution, EJCs recorded during 100 minutes (FIG. 10)): greatly reduces the EJC amplitude and frequency
- average excitatory junction current (EJC) amplitude and frequency ([4]; 1 μM, following 20 minutes of exposure, each bar average of at least 60 recordings (FIG. 11)): highly significant decrease
- transmitter release ([4]; FIGS. 10 and 11, mixture of compounds): greatly reduces transmitter release
- opiate agonism inferred from reversal by naloxone ([4]; one or both of the compounds, strongly suggested, not measured directly): potent μ-opiate agonists

Molecule: C[C@@H]1NC(=O)[C@H](Cc2ccccc2)N(Cc2c(O)cccc2[N+](=O)[O-])C(=O)[C@H](CCCNC(=N)N)NC(=O)[C@H](Cc2ccc(O)cc2)N(Cc2c(O)cccc2[N+](=O)[O-])C1=O [cyclo-[(Hnb)Tyr-Arg-(Hnb)Phe-(D)Ala]]
- ring closure, yield after HPLC [7]: 18%

Molecule: cyclo-[DGAmbRG]
- ring closure, yield after HPLC [8]: 7.6%

Molecule: cyclo-(Pro-Phe-Asn-Ser-Leu-Ala-Ile)
- ring closure, yield after HPLC [9]: 25%

Molecule: C[C@@H]1NC(=O)[C@H](Cc2ccccc2)N(Cc2c(O)cccc2[N+](=O)[O-])C(=O)[C@H](CCCNC(=N)N)NC(=O)[C@H](Cc2ccc(O)cc2)N(Cc2c(O)cccc2[N+](=O)[O-])C1=O [Cyclo-[(Hnb)Tyr-Arg-(Hnb)Phe-Ala]]
- ring closure, yield after HPLC (from H-(Hnb)Tyr-Arg-(Hnb)Phe-Ala-OH?, amide bond, 12-membered ring): 60%

Molecule: COc1ccc(CN2CC(=O)NCC(=O)NCC(=O)N(Cc3ccc(OC)cc3O)CC2=O)c(O)c1 [H-Gly-(HMB)Gly-(HMB)Gly-Gly-OH]
- ring closure, yield after HPLC (from H-Gly-(HMB)Gly-(HMB)Gly-Gly-OH, amide bond, 12-membered ring, BOP/DIEA, DMF, 1.0 mM): 16%

Molecule: Cyclo-[Leu-Asp-Val-Gly-β-Ala]
- ring closure, yield after HPLC [6]: 18%

Molecule: CC[C@H](C)[C@@H]1NC(=O)[C@H](C)NC(=O)[C@H](CC(C)C)NC(=O)[C@H](CO)NC(=O)[C@H](CC(N)=O)NC(=O)[C@H](Cc2ccccc2)NC(=O)[C@@H]2CCCN2C1=O [cyclo-(Pro-Phe-Asn-Ser-Leu-Ala-Ile)]
- ring closure, yield after HPLC (from H-Pro-Phe-Asn-Ser-Leu-Ala-Ile-OH, amide bond, 21-membered ring, BOP/DIPEA, DMF, -10.0 °C): 67%

Molecule: CN1CC(=O)NCC(=O)NCC(=O)N(C)CC1=O [H-Gly-Gly-MeGly-MeGly-OH]
- ring closure, yield after HPLC (from H-Gly-Gly-MeGly-MeGly-OH, amide bond, 12-membered ring): 18%

Molecule: O=C1CNC(=O)CNC(=O)CNC(=O)CN1 [H-Gly-Gly-Gly-Gly-OH]
- ring closure, yield after HPLC (from H-Gly-Gly-Gly-Gly-OH, amide bond, 12-membered ring, BOP/DIEA, DMF, 1.0 mM): 1%

Molecule: CC(C)C[C@@H]1NC(=O)[C@H](Cc2ccccc2)N(Cc2c(O)cccc2[N+](=O)[O-])C(=O)[C@H](C)NC(=O)[C@H](C)NC(=O)[C@@H]2CCCN2C1=O [Cyclo-[N-(6-nitro-2-hydroxybenzyl)-Phe-Leu-Pro-Ala-Ala]]
- ring closure, yield after HPLC (from H-(6-nitro-2-hydroxybenzyl)Phe-Leu-Pro-Ala-Ala-OH, amide bond, 15-membered ring, BOP/DIEA, DMF, 1.0 mM, 25.0 °C): 44%

Molecule: CN1CC(=O)NCC(=O)NCC(=O)N(C)CC1=O [H-Gly-MeGly-MeGly-Gly-OH]
- ring closure, yield after HPLC (from H-Gly-MeGly-MeGly-Gly-OH, amide bond, 12-membered ring): 13%

Molecule: C[C@H]1C(=O)N[C@@H](Cc2ccc(O)cc2)C(=O)N(Cc2c(O)cccc2[N+](=O)[O-])[C@@H](CCCNC(=N)N)C(=O)N[C@@H](Cc2ccccc2)C(=O)N1Cc1c(O)cccc1[N+](=O)[O-] [H-(Hnb)Ala-Tyr-(Hnb)Arg-Phe-OH]
- ring closure, yield after HPLC (from H-(Hnb)Ala-Tyr-(Hnb)Arg-Phe-OH, amide bond, 12-membered ring, BOP/DIEA, DMF, 1.0 mM, 25.0 °C): 53%

Molecule: CC[C@H](C)[C@@H]1NC(=O)[C@H](C)NC(=O)[C@H](CC(C)C)NC(=O)[C@H](CO)NC(=O)[C@H](CC(N)=O)NC(=O)[C@H](Cc2ccccc2)NC(=O)[C@@H]2CCCN2C1=O [Cyclo-(Pro-Phe-Asn-Ser-Leu-Ala-Ile)]
- ring closure, yield after HPLC (from H-Asn-Ser-Leu-Ala-Ile-Pro-Phe-OH, amide bond, 21-membered ring, BOP/DIPEA, DMF, 1.0 mM, -10.0 °C): 48%

Molecule: N=C(N)NCCC[C@H]1C(=O)N[C@@H](Cc2ccccc2)C(=O)NCC(=O)N(Cc2c(O)cccc2[N+](=O)[O-])[C@@H](Cc2ccc(O)cc2)C(=O)N1Cc1c(O)cccc1[N+](=O)[O-] [Cyclo-[(Hnb)Tyr-(Hnb)Arg-Phe-Gly]]
- ring closure, yield after HPLC (from H-(Hnb)Tyr-(Hnb)Arg-Phe-Gly-OH?, amide bond, 12-membered ring, BOP/DIEA, DMF, 1.1 mM, 25.0 °C): 61%

Molecule: Cyclo-[Phe-Lys-Trp-Gly-β-Ala]
- ring closure, yield after HPLC [6]: 15%

Molecule: Cyclo-(Pro-Phe-Asn-Ser-Leu-Ala-Ile)
- ring closure, yield after HPLC [9]: 10%

Molecule: cyclo-[(Hnb)Tyr-Arg-(Hnb)Phe-Ala] [Product B]
- stability to hydrolysis [1]: Stable
- stability to heat [2]: Stable to heat

Molecule: CCC(C)[C@@H]1NC(=O)[C@H](C)NC(=O)C(CC(C)C)NC(=O)[C@H](CO)NC(=O)C(CC(N)=O)NC(=O)[C@H](Cc2ccccc2)NC(=O)[C@@H]2CCCN2C1=O (stereo in doubt) [stylostatin, Cyclo-(Pro-Phe-Asn-Ser-Leu-Ala-Ile)]
- cytotoxicity [5]: highly cytotoxic
